# Assay results taken from US20220162191A1, “SMALL MOLECULE MODULATORS OF IL-17” (LEO PHARMA A/S, priority 2019, published 2022).
# Molecular target: T1, human IL-17AA (Homo sapiens, UniProt Q16552)
# T1 construct: host or cells: HEK (human embryonic kidney) cells
# T1 sequence (Q16552 24-155) 1: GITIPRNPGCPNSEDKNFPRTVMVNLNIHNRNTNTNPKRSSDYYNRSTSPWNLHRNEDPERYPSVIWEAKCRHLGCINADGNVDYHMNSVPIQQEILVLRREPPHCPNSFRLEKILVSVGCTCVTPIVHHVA
# T1 sequence (Q16552 24-155) 2: T1 sequence (Q16552 24-155) 1
# Assay: IL-8 release assay in human epithelial keratinocytes adult (HEKa)
# Type: cell-based
# Conditions: 3 ng/ml human IL-17AA + 10 ng/ml human TNFalpha, 68-72 h, IL-8 by HTRF, read-out: Rel EC50 L-8 release assay
# Description: Example: IL-8 release assay in human epithelial keratinocytes adult (HEKa) Keratinocytes were seeded at 3500 cells/well in 384-well ViewPlates (Perkin Elmer) in Epilife medium (Thermo Fisher) containing human keratinocyte growth supplement (HKGS) without hydrocortisone and incubated in a humid incubator at 37° C., 5% CO2, overnight. The following day growth medium was removed and 25 μl fresh Epilife 10 medium added. 75 nl test compound in 100% DMSO was added into each well reserved
# for test compounds, by the use of acoustic pipetting. The remaining wells received an equal volume of DMSO only, as vehicle control, or terfenadine in DMSO, as a positive control for any cytotoxic compounds. Subsequently, another 25 μl Epilife medium was added to each well. Finally, wells containing test compounds and wells prepared to yield 15 maximum stimulation received 25 μl of 9 ng/ml recombinant, human embryonic kidney cell (HEK)-derived human IL-17AA+30 ng/ml human TNF-alpha, in Epilife medium. Wells prepared to define 100% inhibition of IL-17 effects received 25 μl of 30 ng/ml human TNF-alpha alone, in Epilife medium. Final concentrations were 3 ng/ml HEKhuman IL-17AA+10 ng/ml human TNFalpha (maximum stimulation) and 10 ng/ml 20 human TNFalpha alone (100% inhibition, Emax), respectively. Cells were incubated for 68-72 h in the incubator. IL-8 released from the cells was measured by the use of a commercial homogenous time-resolved fluorescence (HTRF) assay (CisBio). 2 μl cell culture supernatant was transferred to a 384-well Proxiplate. 5 μl HTRF reagent was added and the plates incubated sealed in the dark for 3-22 h at room temperature. Time resolved fluorescence was read at 665 vs 620 nm, with excitation at 320 nm, and IL-8 levels calculated as percent of controls. Reduction of the amount of secreted IL-8 indicates decreased IL-17 signaling. Concentration response curves were fitted by the use of a four-parameter logistic equation. Relative IC50 and Emax were reported from 5 curves showing acceptable fit (r2>0.9). Cytotoxicity was measured in the cell-containing
# Compounds of the present invention were tested in the IL-8 release assay in human epithelial keratinocytes.
row,SMILES,EC50 [nM]
1,"CC(C)n1cc(-c2ccc(Cl)c(C[C@H](NC(=O)C(C)(C)F)C(=O)Nc3ccc(-c4nncn4C)cc3)c2)ccc1=O [Example 282, N-[(1S)-1-[[2-chloro-5-(1-isopropyl-6-oxo-3-pyridyl)phenyl]methyl]-2-[4-(4-methyl-1,2,4-triazol-3-yl)anilino]-2-oxo-ethyl]-2-fluoro-2-methyl-propanamide]",> 1000
2,"CC(C)n1cc(-c2ccc(Cl)c(CC(NC(=O)c3ccnn3C)C(=O)Nc3ccc(-c4ncnn4C)cc3)c2)ccc1=O (centres unmarked) [Example 301, N-[1-[[2-chloro-5-(1-isopropyl-6-oxo-3-pyridyl)phenyl]methyl]-2-[4-(2-methyl-1,2,4-triazol-3-yl)anilino]-2-oxo-ethyl]-2-methyl-pyrazole-3-carboxamide]",> 1000
3,"Cc1n[nH]c(C)c1-c1ccc(NC(=O)[C@H](Cc2cc(-c3ccnc(N4CCCC5(COC5)C4)n3)ccc2Cl)NC(=O)C2(F)CC2)cc1 [Example 319, N-[(1S)-1-[[2-chloro-5-[2-(2-oxa-8-azaspiro[3.5]nonan-8-yl)pyrimidin-4-yl]phenyl]methyl]-2-[4-(3,5-dimethyl-1H-pyrazol-4-yl)anilino]-2-oxo-ethyl]-1-fluoro-cyclopropanecarboxamide]",< 100
4,"Cc1nncn1-c1ccc(NC(=O)C(Cc2cc(-c3ccc(=O)n(C(C)C)c3)ccc2Cl)NC(=O)c2ccnn2C)cc1 (centres unmarked) [Example 77, N-[1-[[2-chloro-5-(1-isopropyl-6-oxo-3-pyridyl)phenyl]methyl]-2-[4-(3-methyl-1,2,4-triazol-4-yl)anilino]-2-oxo-ethyl]-2-methyl-pyrazole-3-carboxamide]",> 1000
5,"CC(C)c1cc(-c2ccc(Cl)c(CC(NC(=O)c3ccnn3C)C(=O)Nc3ccc(-c4nncn4C)cc3)c2)ccn1 (centres unmarked) [Example 75, N-[1-[[2-chloro-5-(2-isopropyl-4-pyridyl)phenyl]methyl]-2-[4-(4-methyl-1,2,4-triazol-3-yl)anilino]-2-oxo-ethyl]-2-methyl-pyrazole-3-carboxamide]",> 1000
6,"Cc1cnn(C)c1-c1ccc(NC(=O)[C@@H](NC(=O)c2ccnn2C)[C@@H]2CCc3ccc(-c4ccnc(N5C[C@@H]6C[C@H]5CO6)c4)cc32)cc1 [Example 378, N-[(1S)-2-[4-(2,4-dimethylpyrazol-3-yl)anilino]-1-[(1R)-6-[2-[(1S,4S)-2-oxa-5-azabicyclo[2.2.1]heptan-5-yl]-4-pyridyl]indan-1-yl]-2-oxo-ethyl]-2-methyl-pyrazole-3-carboxamide]",< 100
7,"Cn1cnnc1-c1ccc(NC(=O)C(Cc2cc(-c3cccc(C4(O)CCC4)c3)ccc2Cl)NC(=O)c2ccnn2C)cc1 (centres unmarked) [Example 144, N-[1-[[2-chloro-5-[3-(1-hydroxycyclobutyl)phenyl]phenyl]methyl]-2-[4-(4-methyl-1,2,4-triazol-3-yl)anilino]-2-oxo-ethyl]-2-methyl-pyrazole-3-carboxamide]",100 to 1000
8,"Cc1nccn1-c1ccc(NC(=O)[C@H](Cc2cc(-c3ccc(=O)n(C(C)C)c3)ccc2Cl)NC(=O)C2(F)CC2)cc1 [Example 114, N-[(1S)-1-[[2-chloro-5-(1-isopropyl-6-oxo-3-pyridyl)phenyl]methyl]-2-[4-(2-methylimidazol-1-yl)anilino]-2-oxo-ethyl]-1-fluoro-cyclopropanecarboxamide]",100 to 1000
9,"Cc1n[nH]c(C)c1-c1ccc(NC(=O)[C@H](Cc2cc(-c3cnn(C(C)(C)C)c3)ccc2Cl)NC(=O)c2ccnn2C)cc1 [Example 200, N-[(1S)-1-[[5-(1-tert-butylpyrazol-4-yl)-2-chloro-phenyl]methyl]-2-[4-(3,5-dimethyl-1H-pyrazol-4-yl)anilino]-2-oxo-ethyl]-2-methyl-pyrazole-3-carboxamide]",< 100
10,"Cn1cncc1-c1ccc(NC(=O)[C@H](Cc2cc(-c3cccc([C@H]4CNCCO4)c3)ccc2Cl)NC(=O)c2ccnn2C)cc1 [Example 220, N-[(1S)-1-[[2-chloro-5-[3-[(2S)-morpholin-2-yl]phenyl]phenyl]methyl]-2-[4-(3-methylimidazol-4-yl)anilino]-2-oxo-ethyl]-2-methyl-pyrazole-3-carboxamide]",100 to 1000

# Continued, values first:
row,EC50 [nM],SMILES
1,100 to 1000,"Cn1cncc1-c1ccc(NC(=O)[C@H](Cc2cc(-c3cccc([C@H]4COCCN4)c3)ccc2Cl)NC(=O)c2ccnn2C)cc1 [Example 215, N-[(1S)-1-[[2-chloro-5-[3-[(3S)-morpholin-3-yl]phenyl]phenyl]methyl]-2-[4-(3-methylimidazol-4-yl)anilino]-2-oxo-ethyl]-2-methyl-pyrazole-3-carboxamide]"
2,100 to 1000,"CC(C)Oc1cccc(-c2ccc(Cl)c(CC(NC(=O)c3ccnn3C)C(=O)Nc3ccc(-c4nncn4C)cc3)c2)c1 (centres unmarked) [Example 122, N-[1-[[2-chloro-5-(3-isopropoxyphenyl)phenyl]methyl]-2-[4-(4-methyl-1,2,4-triazol-3-yl)anilino]-2-oxo-ethyl]-2-methyl-pyrazole-3-carboxamide]"
3,> 1000,"CC(C)CC(=O)N[C@@H](Cc1cc(-c2ccc(=O)n(C(C)C)c2)ccc1Cl)C(=O)Nc1ccc(-c2nncn2C)cc1 [Example 115, N-[(1S)-1-[[2-chloro-5-(1-isopropyl-6-oxo-3-pyridyl)phenyl]methyl]-2-[4-(4-methyl-1,2,4-triazol-3-yl)anilino]-2-oxo-ethyl]-3-methyl-butanamide]"
4,100 to 1000,"Cc1nocc1-c1ccc(NC(=O)C(Cc2cc(-c3ccc(=O)n(C(C)C)c3)ccc2Cl)NC(=O)c2ccnn2C)cc1 (centres unmarked) [Example 78, N-[1-[[2-chloro-5-(1-isopropyl-6-oxo-3-pyridyl)phenyl]methyl]-2-[4-(3-methylisoxazol-4-yl)anilino]-2-oxo-ethyl]-2-methyl-pyrazole-3-carboxamide]"
5,> 1000,"Cc1cnn(C)c1-c1ccc(NC(=O)[C@H](Cc2cc(-c3ccc(=O)n(C(C)C)c3)ccc2Cl)NC(=O)C(C)C2CC2)cc1 (stereo partly drawn) [Example 332, (2S)-3-[2-chloro-5-(1-isopropyl-6-oxo-3-pyridyl)phenyl]-2-(2-cyclopropylpropanoylamino)-[4-(2,4-dimethylpyrazol-3-yl)phenyl]propanamide]"
6,< 100,"Cc1nn(C)c(C)c1-c1ccc(NC(=O)[C@@H](NC(=O)C2(F)CC2)[C@@H]2CCc3ccc(-c4ccnc(N5C[C@@H]6C[C@H]5CO6)c4)cc32)cc1 [Example 371, 1-fluoro-N-[(1S)-1-[(1R)-6-[2-[(1S,4S)-2-oxa-5-azabicyclo[2.2.1]heptan-5-yl]-4-pyridyl]indan-1-yl]-2-oxo-2-[4-(1,3,5-trimethylpyrazol-4-yl)anilino]ethyl] cyclopropanecarboxamide]"
7,100 to 1000,"Cn1cnnc1-c1ccc(NC(=O)C(Cc2cc(-c3ccc(O)c(CN4CCOCC4)c3)ccc2Cl)NC(=O)c2ccnn2C)cc1 (centres unmarked) [Example 130, N-[1-[[2-chloro-5-[4-hydroxy-3-(morpholinomethyl)phenyl]phenyl]methyl]-2-[4-(4-methyl-1,2,4-triazol-3-yl)anilino]-2-oxo-ethyl]-2-methyl-pyrazole-3-carboxamide]"
8,100 to 1000,"Cn1cnnc1-c1ccc(NC(=O)C(Cc2cc(-c3cccc(C(C)(C)O)c3)ccc2Cl)NC(=O)c2ccnn2C)cc1 (centres unmarked) [Example 109, N-[1-[[2-chloro-5-[3-(1-hydroxy-1-methyl-ethyl)phenyl]phenyl]methyl]-2-[4-(4-methyl-1,2,4-triazol-3-yl)anilino]-2-oxo-ethyl]-2-methyl-pyrazole-3-carboxamide]"
9,100 to 1000,"Cc1n[nH]c(C)c1-c1ccc(NC(=O)[C@@H](NC(=O)C2(F)CC2)[C@@H]2CCc3ccc(-c4cc(N5C[C@@H]6C[C@H]5CO6)ccn4)cc32)cc1 [Example 368, N-[(1S)-2-[4-(3,5-dimethyl-1H-pyrazol-4-yl)anilino]-1-[(1R)-6-[4-[(1S,4S)-2-oxa-5-azabicyclo[2.2.1]heptan-5-yl]-2-pyridyl]indan-1-yl]-2-oxo-ethyl]-1-fluoro-cyclopropanecarboxamide]"
10,< 100,"Cc1n[nH]c(C)c1-c1ccc(NC(=O)[C@@H](NC(=O)c2ccnn2C)[C@@H]2CCCc3ccc(-c4cccc(CN5CCC5)c4)cc32)cc1 [Example 388, N-[(1S)-1-[(1R)-7-[3-(azetidin-1-ylmethyl)phenyl]tetralin-1-yl]-2-[4-(3,5-dimethyl-1H-pyrazol-4-yl)anilino]-2-oxo-ethyl]-2-methyl-pyrazole-3-carboxamide]"
